# System: M. tuberculosis H37Rv (ATCC 27294)
# Experiment: In vitro anti-tuberculosis screening, BACTEC 460 radiometric system, percent inhibition of growth
# Format: cell-based, Mycobacterium tuberculosis
# Settings: Mtb H37Rv; for inhibition of the growth of Mtb: drug concentration 12.5 μg/mL
structure (smiles),measurement,setting,value
"O=c1cc(-c2cccc(-c3cccc4c(=O)cc(-c5ccccc5)oc34)c2)oc2ccccc12 [Compound 155, 3′-8′′-Biflavone]",anti-TB activity in words,12.5 μg/mL,moderate activity
same,Activity % Inhibition at 12.5 μg/mL (biflavonoids),"12.5 μg/mL, BACTEC 12B medium",49%
"CC(=O)Oc1ccc([C@@H]2CC(=O)c3c(cc(OC(C)=O)c(-c4c(OC(C)=O)cc(OC(C)=O)c5c4O[C@H](c4ccc(OC(C)=O)cc4)CC5=O)c3OC(C)=O)O2)cc1 [Compound 173, Rhusflavanone hexaacetate]",Activity % Inhibition at 12.5 μg/mL (biflavonoids),"12.5 μg/mL, BACTEC 12B medium",0%
"O=c1cc(-c2ccccc2-c2cccc3c(=O)cc(-c4ccccc4)oc23)oc2ccccc12 [Compound 161, 8-2′′′-Biflavone]",Activity % Inhibition at 12.5 μg/mL (biflavonoids),"12.5 μg/mL, BACTEC 12B medium",0%
COc1ccc2c(=O)c(Br)c(-c3ccc(Cl)cc3)oc2c1 [Compound 103],Activity % Inhibition at 12.5 μg/mL (flavones),"12.5 μg/mL, BACTEC 12B medium",19%
COc1ccc(/C=C/C(=O)c2cccc(I)c2O)cc1 [Compound 49],Activity % inhibition at 12.5 μg/mL (chalcones),"12.5 μg/mL, BACTEC 12B medium",0%
same,inhibition of the growth of Mtb,,0%
O=c1cc(-c2ccccc2O)oc2ccccc12 [Compound 116],Activity % Inhibition at 12.5 μg/mL (flavones),"12.5 μg/mL, BACTEC 12B medium",1%
O=c1c(I)c(-c2ccccc2)oc2ccccc12 [Compound 127],anti-TB activity in words,12.5 μg/mL,weakly active or inactive
same,Activity % Inhibition at 12.5 μg/mL (flavones),"12.5 μg/mL, BACTEC 12B medium",0%
"COc1ccc(-c2oc3cc(OC)cc(OC)c3c(=O)c2-c2c(-c3ccc(OC)cc3)oc3cc(OC)cc(OC)c3c2=O)cc1 [Compound 159, 3-3″-Biapigenin hexamethylether]",anti-TB activity in words,12.5 μg/mL,completely devoid of activity
same,Activity % Inhibition at 12.5 μg/mL (biflavonoids),"12.5 μg/mL, BACTEC 12B medium",0%
Nc1ccc(C(=O)/C=C/c2cccnc2N)cc1 [Compound 66],Activity % inhibition at 12.5 μg/mL (chalcone-like compounds),"12.5 μg/mL, BACTEC 12B medium",7%
COc1ccc(/C=C/C(=O)c2c(O)cc(OC)cc2OC)cc1 [Compound 7],Activity % inhibition at 12.5 μg/mL (chalcones),"12.5 μg/mL, BACTEC 12B medium",40%
same,inhibition of the growth of Mtb,,40%
COc1ccc(-c2cc(=O)c3cc(I)ccc3o2)cc1 [Compound 107],Activity % Inhibition at 12.5 μg/mL (flavones),"12.5 μg/mL, BACTEC 12B medium",15%
COc1ccc(/C=C/C(=O)c2ccc(OC)cc2O)cc1 [Compound 9],Activity % inhibition at 12.5 μg/mL (chalcones),"12.5 μg/mL, BACTEC 12B medium",32%
COc1ccc(-c2oc3ccc(C(=O)O)cc3c(=O)c2O)cc1 [Compound 130],Activity % Inhibition at 12.5 μg/mL (flavones),"12.5 μg/mL, BACTEC 12B medium",0%
COc1ccc(/C=C/C(=O)c2cc(Cl)ccc2O)cc1 [Compound 29],Activity % inhibition at 12.5 μg/mL (chalcones),"12.5 μg/mL, BACTEC 12B medium",20%
same,inhibition of the growth of Mtb,,20%
COc1ccc(/C=C/C(=O)c2cc(I)ccc2O)cc1 [Compound 48],Activity % inhibition at 12.5 μg/mL (chalcones),"12.5 μg/mL, BACTEC 12B medium",0%
same,inhibition of the growth of Mtb,,0%
O=c1c(O)c(-c2ccccc2)oc2cc(Cl)ccc12 [Compound 81],Activity % Inhibition at 12.5 μg/mL (flavones),"12.5 μg/mL, BACTEC 12B medium",58%
"O=c1cc(-c2ccc(O)c(-c3c(O)cc(O)c4c(=O)cc(-c5ccc(O)cc5)oc34)c2)oc2cc(O)cc(O)c12 [Compound 164, Amentoflavone]",inhibition at 12.5 µg/mL,"Mycobacterium tuberculosis, 12.5 μg/mL, BACTEC 12B medium, read-out: Activity % Inhibition at 12.5 μg/mL (biflavonoids)",0%
COc1ccc(C(=O)/C=C/c2cccnc2)cc1 [Compound 71],Activity % inhibition at 12.5 μg/mL (chalcone-like compounds),"12.5 μg/mL, BACTEC 12B medium",0%
COc1ccc2c(c1)OC(c1ccc(Cl)cc1)CC2=O (centres unmarked) [Compound 137],Activity % Inhibition at 12.5 μg/mL (flavanones),"12.5 μg/mL, BACTEC 12B medium",48%
COc1cc(OC)c2c(=O)cc(-c3ccc(O)cc3)oc2c1 [Compound 132],Activity % Inhibition at 12.5 μg/mL (flavones),"12.5 μg/mL, BACTEC 12B medium",0%
COc1cc(OC)c2c(=O)cc(-c3ccc(OC)c(I)c3)oc2c1 [Compound 126],Activity % Inhibition at 12.5 μg/mL (flavones),"12.5 μg/mL, BACTEC 12B medium",0%
CN(C)c1ccc(/C=C/C(=O)c2ccccn2)cc1 [Compound 62],Activity % inhibition at 12.5 μg/mL (chalcone-like compounds),"12.5 μg/mL, BACTEC 12B medium",16%
Nc1ccc(C(=O)C=Cc2cccnc2N)cc1 [Compound 73],Activity % inhibition at 12.5 μg/mL (chalcone-like compounds),"12.5 μg/mL, BACTEC 12B medium",0%
COc1ccc(C2CC(=O)c3ccc(I)cc3O2)cc1 (centres unmarked) [Compound 149],Activity % Inhibition at 12.5 μg/mL (flavanones),"12.5 μg/mL, BACTEC 12B medium",0%
CCOc1cc(O)c(C(=O)C=Cc2ccccc2)c(OCC)c1 [Compound 14],Activity % inhibition at 12.5 μg/mL (chalcones),"12.5 μg/mL, BACTEC 12B medium",0%
O=c1cc(-c2ccccc2)oc2ccc(F)cc12 [Compound 112],anti-TB activity in words,12.5 μg/mL,weakly active or inactive
same,Activity % Inhibition at 12.5 μg/mL (flavones),"12.5 μg/mL, BACTEC 12B medium",7%
COc1ccc(-c2cc(=O)c3ccccc3o2)cc1 [Compound 93],Activity % Inhibition at 12.5 μg/mL (flavones),"12.5 μg/mL, BACTEC 12B medium",29%

# From US6677350B1, “Beta-fluoroethyl thiourea compounds and use” (priority 1999, dated 2004)
